Source: ChEMBL document CHEMBL1932988, “Synthesis, antimicrobial, anticancer evaluation and QSAR studies of 6-methyl-4-[1-(2-substituted-phenylamino-acetyl)-1H-indol-3-yl]-2-oxo/thioxo-1,2,3,4-tetrahydropyrimidine-5-carboxylic acid ethyl esters” (Eur J Med Chem, 2012)
Values after ≈ are worked out from the molar mass of the structure shown.

Tests used:
[1] = tested on: Staphylococcus aureus; assay: Antibacterial activity against Staphylococcus aureus MTCC 2901 after 24 hrs by tube dilution method; type: functional
[2] = tested on: Bacillus subtilis; assay: Antibacterial activity against Bacillus subtilis MTCC 2063 after 24 hrs by tube dilution method; type: functional
[3] = tested on: Escherichia coli; assay: Antibacterial activity against Escherichia coli MTCC 1652 after 24 hrs by tube dilution method; type: functional
[4] = tested on: Candida albicans; assay: Antifungal activity against Candida albicans MTCC 227 after 48 hrs by tube dilution method; type: functional
[5] = tested on: Aspergillus niger; assay: Antifungal activity against Aspergillus niger MTCC 8189 after 7 days by tube dilution method; type: functional
[6] = tested on: Staphylococcus aureus; assay: Antibacterial activity against Staphylococcus aureus MTCC 2901 after 24 hrs followed by subculturing; type: functional
[7] = tested on: Bacillus subtilis; assay: Antibacterial activity against Bacillus subtilis MTCC 2063 after 24 hrs by tube dilution method hrs followed by subculturing; type: functional
[8] = tested on: Escherichia coli; assay: Antibacterial activity against Escherichia coli MTCC 1652 after 24 hrs by tube dilution method hrs followed by subculturing; type: functional
[9] = tested on: Candida albicans; assay: Antifungal activity against Candida albicans MTCC 227 after 48 hrs by tube dilution method hrs followed by subculturing; type: functional
[10] = tested on: Aspergillus niger; assay: Antifungal activity against Aspergillus niger MTCC 8189 after 7 days by tube dilution method hrs followed by subculturing; type: functional
[11] = tested on: Staphylococcus aureus; assay: Ratio of MIC to MBC for Staphylococcus aureus MTCC 2901; type: functional
[12] = tested on: Bacillus subtilis; assay: Ratio of MIC to MBC for Bacillus subtilis MTCC 2063; type: functional
[13] = tested on: Escherichia coli; assay: Ratio of MIC to MBC for Escherichia coli MTCC 1652; type: functional
[14] = tested on: Candida albicans; assay: Ratio of MIC to MFC for Candida albicans MTCC 227; type: functional
[15] = tested on: Aspergillus niger; assay: Ratio of MIC to MFC for Aspergillus niger MTCC 8189; type: functional
[16] = Partition coefficient, log P of the compound; type: physicochemical; conditions: octanol/water
[17] = tested on: MCF7; assay: cells; conditions: Homo sapiens, MCF7, 72 h
Description: Cytotoxicity against human MCF7 cells after 72 hrs by MTT assay

[18] = tested on: HCT-116; assay: cells; conditions: Homo sapiens, HCT-116, 72 h

| Compound | -logMIC [1] | -logMIC [2] | -logMIC [3] | -logMIC [4] | -logMIC [5] | MBC [6] | MBC [7] | MBC [8] | MFC [9] | MFC [10] | Ratio [11] | Ratio [12] | Ratio [13] | Ratio [14] | Ratio [15] | logP [16] | IC50 [17] | IC50 [18] |
| --- | --- | --- | --- | --- | --- | --- | --- | --- | --- | --- | --- | --- | --- | --- | --- | --- | --- | --- |
| CCOC(=O)C1=C(C)NC(=S)NC1c1cn(C(=O)CNc2cccc([N+](=O)[O-])c2)c2ccccc12 (stereo unspecified) | 1.6 | 1.6 | 1.9 | 1.6 | 1.6 | >0.1 uM/ml | >0.1 uM/ml | 0.1 uM/ml | >0.1 uM/ml | >0.1 uM/ml | 3 | 3 | 3 | 3 | 3 | 2.88 | > 1000 µg/mL | 130 µg/mL (≈ 263 µM) |
| CCOC(=O)C1=C(C)NC(=O)NC1c1cn(C(=O)CNc2ccccc2N)c2ccccc12 (stereo unspecified) | 1.55 | 1.55 | 1.85 | 1.55 | 1.55 | >0.11 uM/ml | >0.11 uM/ml | 0.11 uM/ml | >0.11 uM/ml | >0.11 uM/ml | 3 | 3 | 3 | 3 | 3 | 0.74 | 2.5 µg/mL (≈ 5.59 µM) | 300 µg/mL (≈ 670 µM) |
